Data from US6355799B1, “Substituted benzene compounds, process for their preparation, and herbicidal and defoliant compositions containing them” (ISK Americas Incorporated, priority 1997, dated 2002).

What was measured:
Assay type in all cases: in vivo
[1] = test system: upland rice (Oryza sp., var. Tebonnet, RICE); assay: Pre-emerge test, crop safety; details: pre-emerge, 14 days after application, scale 0-100
Source text: (§1) A standard greenhouse herbicide activity screening system was used to evaluate the herbicidal efficacy and crop safety of these test compounds. Seven broadleaf weed species including redroot pigweed (Amaranthus retroflexus, AMARE, velvetleaf (Abutilon theophrasti, ABUTH), sicklepod (Cassia obtusifolia, CASOB), ivyleaf morningglory (Ipomoea hederacea, IPOHE), lambsquarters (Chenopodium album, CHEAL), common ragweed (Ambrosia artemisizfolia L., AMBEL), and cocklebur (Xanthium strumarium, XANST) were used as test species. Four grass weed species including green foxtail (Setaria viridis, SETVI), barnyardgrass (Echinochloa crus-galli, ECHCG), johnsongrass (Sorghum halepense, SORHA), and large crabgrass (Digitaria sanguinalis, DIGSA) were also used. In addition, three crop species, field corn (Zea mays L., var. Dekalb 535, CORN), soybean (Glycine max L., var. Pella 86, SOY), and is upland rice (Oryza sp., var. Tebonnet, RICE) were included.
(§2) All plants were grown in 10 cm square plastic pots which were filled with a sandy loam soil mix. For pre-emerge tests, seeds were planted one day prior to application of the test compounds. For post-emerge tests, seeds were planted 8-21 days prior to the test to allow emergence and good foliage development prior to application of the test substances. At the time of the post-emerge application, plants of all species were usually at the 2-3 leaf stage of development.
(§3) All test compounds Were dissolved in acetone and applied to the test units in a volume of 187 l /ha. Test materials were applied at rates ranging from 15 g ai/ha to 1000 g ai/ha using a track sprayer equipped with a TJ8001E even flow flat fan spray nozzle. Plants were arranged on a shelf so that the top of the canopy (post-emerge) or top of the soil surface (pre-emerge) was 40-45 cm below the nozzle. Pressurized air was used to force the test solution through the nozzle as it was mechanically advanced (via electrically driven chain drive) over the top of all test plants/pots. This application simulates a typical commercial field herbicide application.
(§4) In the post-emerge test, a commercial non-ionic surfactant was also included (0.25% v/v) to enhance wetting of the leaf surfaces of target plants. Immediately after application, test units of the pre-emerge applications were watered at the soil surface to incorporate the test materials. Subsequently, these test units were bottom-watered. Post-emerge test units were always bottom-watered.
(§5) At 14 days after application of the test materials, phytotoxicity ratings were recorded. A rating scale of 0-100 was used as previously described in Research Methods in Weed Science, 2nd edition, B. Truelove, Ed., Southern Weed Science Society, Auburn University, Auburn, Ala. 1977. Briefly, “0” corresponds to no damage and “100” corresponds to complete death of all plants in the test unit. This scale was used both to determine efficacy against weed species and damage to crop species. Herbicide activity data for various compounds of this invention, which are shown by compound No. in Tables 1-8, are shown in Tables 11 and 12.

[2] = test system: field corn (Zea mays L., var. Dekalb 535, CORN); assay: Pre-emerge test, crop safety; details: pre-emerge, 14 days after application, scale 0-100
Source text: as §1, §2, §3, §4, §5

[3] = test system: barnyardgrass (Echinochloa crus-galli, ECHCG); assay: Pre-emerge test, greenhouse herbicide activity screening; details: pre-emerge, 14 days after application
Source text: as §1, §2, §3, §4, §5

[4] = test system: velvetleaf (Abutilon theophrasti, ABUTH); assay: as above; details: pre-emerge, 14 days after application
Source text: as §1, §2, §3, §4, §5

[5] = test system: sicklepod (Cassia obtusifolia, CASOB); assay: as above; details: pre-emerge, 14 days after application
Source text: as §1, §2, §3, §4, §5

[6] = test system: green foxtail (Setaria viridis, SETVI); assay: as above; details: pre-emerge, 14 days after application
Source text: as §1, §2, §3, §4, §5

[7] = test system: lambsquarters (Chenopodium album, CHEAL); assay: as above; details: pre-emerge, 14 days after application
Source text: as §1, §2, §3, §4, §5

[8] = test system: large crabgrass (Digitaria sanguinalis, DIGSA); assay: as above; details: pre-emerge, 14 days after application
Source text: as §1, §2, §3, §4, §5

[9] = test system: ivyleaf morningglory (Ipomoea hederacea, IPOHE); assay: as above; details: pre-emerge, 14 days after application
Source text: as §1, §2, §3, §4, §5

[10] = test system: redroot pigweed (Amaranthus retroflexus, AMARE); assay: as above; details: pre-emerge, 14 days after application
Source text: as §1, §2
All test compounds Were dissolved in acetone and applied to the test units in a volume of 187 l /ha. […] Plants were arranged on a shelf so that the top of the canopy (post-emerge) or top of the soil surface (pre-emerge) was 40-45 cm below the nozzle. Pressurized air was used to force the test solution through the nozzle as it was mechanically advanced (via electrically driven chain drive) over the top of all test plants/pots. This application simulates a typical commercial field herbicide application.
as §4, §5

[11] = test system: barnyardgrass (Echinochloa crus-galli, ECHCG); assay: Post-emerge test, greenhouse herbicide activity screening; details: post-emerge, 14 days after application, rating scale 0-100
Source text: as §1, §2, §3, §4, §5

[12] = test system: redroot pigweed (Amaranthus retroflexus, AMARE); assay: as above; details: post-emerge, 14 days after application
Source text: as §1, §2, §3, §4, §5

[13] = test system: velvetleaf (Abutilon theophrasti, ABUTH); assay: as above; details: post-emerge, 14 days after application, rating scale 0-100
Source text: as §1, §2, §3, §4, §5

[14] = test system: sicklepod (Cassia obtusifolia, CASOB); assay: as above; details: post-emerge, 14 days after application, rating scale 0-100
Source text: as §1, §2, §3, §4, §5

[15] = test system: green foxtail (Setaria viridis, SETVI); assay: as above; details: post-emerge, 14 days after application, rating scale 0-100
Source text: as §1, §2, §3, §4, §5

[16] = test system: lambsquarters (Chenopodium album, CHEAL); assay: as above; details: post-emerge, 14 days after application, rating scale 0-100
Source text: as §1, §2, §3, §4, §5

[17] = test system: large crabgrass (Digitaria sanguinalis, DIGSA); assay: as above; details: post-emerge, 14 days after application, rating scale 0-100
Source text: as §1, §2, §3, §4, §5

[18] = test system: ivyleaf morningglory (Ipomoea hederacea, IPOHE); assay: as above; details: post-emerge, 14 days after application, rating scale 0-100
Source text: as §1, §2, §3, §4, §5

[19] = 250 g ai/ha, rating scale 0-100

COc1c(Cl)cc(F)c(-n2c(=O)cc(C(F)(F)F)n(C)c2=O)c1NC(=O)c1cc2ccccc2cc1C [2-157]
phytotoxicity rating RICE (crop damage) ([1]; 63 g ai/ha): 30
phytotoxicity rating RICE (crop damage) ([1]; 250 g ai/ha): 70
phytotoxicity rating CORN (crop damage) ([2]; 63 g ai/ha): 0
phytotoxicity rating CORN (crop damage) ([2]; 250 g ai/ha): 45
phytotoxicity rating ECHCG ([3]; 63 g ai/ha, scale 0-100): 30
phytotoxicity rating ECHCG ([3]; 250 g ai/ha, scale 0-100): 95
phytotoxicity rating ABUTH ([4]; 63 g ai/ha, scale 0-100): 100
phytotoxicity rating ABUTH ([4]; 250 g ai/ha, scale 0-100): 100
phytotoxicity rating CASOB ([5]; 63 g ai/ha, scale 0-100): 30
phytotoxicity rating CASOB ([5]; 250 g ai/ha, scale 0-100): 90
phytotoxicity rating SETVI ([6]; 63 g ai/ha, scale 0-100): 30
phytotoxicity rating SETVI ([6]; 250 g ai/ha, scale 0-100): 70
phytotoxicity rating CHEAL ([7]; 63 g ai/ha, scale 0-100): 100
phytotoxicity rating CHEAL ([7]; 250 g ai/ha, scale 0-100): 100
phytotoxicity rating DIGSA ([8]; 63 g ai/ha, scale 0-100): 35
phytotoxicity rating DIGSA ([8]; 250 g ai/ha, scale 0-100): 70
phytotoxicity rating IPOHE ([9]; 63 g ai/ha, scale 0-100): 40
phytotoxicity rating IPOHE ([9]; 250 g ai/ha, scale 0-100): 100
phytotoxicity rating AMARE ([10]; 63 g ai/ha, scale 0-100): 100
phytotoxicity rating AMARE ([10]; 250 g ai/ha, scale 0-100): 100

COc1c(Cl)cc(F)c(-n2c(=O)cc(C(F)(F)F)n(C)c2=O)c1NN [Compound 15-1, 3-[4-chloro-2-diazanyl-6-fluoro-3-methoxyphenyl]-1-methyl-6-trifluoromethyl-2,4(1H, 3H)-pyrimidinedione]
phytotoxicity rating ECHCG ([3]; 63 g ai/ha, rating scale 0-100): 91
phytotoxicity rating ECHCG [3, 19]: 100
phytotoxicity rating ABUTH ([4]; 63 g ai/ha, rating scale 0-100): 100
phytotoxicity rating ABUTH [4, 19]: 100
phytotoxicity rating CASOB ([5]; 63 g ai/ha, rating scale 0-100): 100
phytotoxicity rating CASOB [5, 19]: 100
phytotoxicity rating SETVI ([6]; 63 g ai/ha, rating scale 0-100): 100
phytotoxicity rating SETVI [6, 19]: 100
phytotoxicity rating CHEAL ([7]; 63 g ai/ha, rating scale 0-100): 100
phytotoxicity rating CHEAL [7, 19]: 100
phytotoxicity rating DIGSA ([8]; 63 g ai/ha, rating scale 0-100): 100
phytotoxicity rating DIGSA [8, 19]: 100
phytotoxicity rating IPOHE ([9]; 63 g ai/ha, rating scale 0-100): 100
phytotoxicity rating IPOHE [9, 19]: 100
Post-emerge Herbicidal Activity ECHCG (phytotoxicity rating) ([11]; 63 g ai/ha): 80
Post-emerge Herbicidal Activity ECHCG (phytotoxicity rating) ([11]; 250 g ai/ha): 99
Post-emerge Herbicidal Activity AMARE (phytotoxicity rating) ([12]; 63 g ai/ha, rating scale 0-100 (0 no damage, 100 complete death)): 100
Post-emerge Herbicidal Activity AMARE (phytotoxicity rating) [12, 19]: 100
Post-emerge Herbicidal Activity ABUTH (phytotoxicity rating) ([13]; 63 g ai/ha): 100
Post-emerge Herbicidal Activity ABUTH (phytotoxicity rating) ([13]; 250 g ai/ha): 100
Post-emerge Herbicidal Activity CASOB (phytotoxicity rating) ([14]; 63 g ai/ha): 100
Post-emerge Herbicidal Activity CASOB (phytotoxicity rating) ([14]; 250 g ai/ha): 100
Post-emerge Herbicidal Activity SETVI (phytotoxicity rating) ([15]; 63 g ai/ha): 80
Post-emerge Herbicidal Activity SETVI (phytotoxicity rating) ([15]; 250 g ai/ha): 100
Post-emerge Herbicidal Activity CHEAL (phytotoxicity rating) ([16]; 63 g ai/ha): 100
Post-emerge Herbicidal Activity CHEAL (phytotoxicity rating) ([16]; 250 g ai/ha): 100
Post-emerge Herbicidal Activity DIGSA (phytotoxicity rating) ([17]; 63 g ai/ha): 90
Post-emerge Herbicidal Activity DIGSA (phytotoxicity rating) ([17]; 250 g ai/ha): 100
Post-emerge Herbicidal Activity IPOHE (phytotoxicity rating) ([18]; 63 g ai/ha): 100
Post-emerge Herbicidal Activity IPOHE (phytotoxicity rating) ([18]; 250 g ai/ha): 100
phytotoxicity rating AMARE ([10]; 63 g ai/ha, rating scale 0-100): 100
phytotoxicity rating AMARE [10, 19]: 100
